In ChEMBL document CHEMBL5550164, “Enhancing anticancer treatment: Development of cRGD-Conjugated F-OH-Evo prodrugs for targeted delivery” (Bioorg Med Chem, 2024):
The source made the active and inactive calls. The calls are words filed in the database; no cut-off is given here.

Experiments:
U-87 MG [1] = test: Cytotoxicity against human U87 cells measured after 72 hrs by CCK8 assay; assay type: functional, cell-based, U-87MG ATCC
MCF7 = test: Cytotoxicity against human MCF7 cells measured after 72 hrs by CCK8 assay; assay type: functional, cell-based; details: MCF7, 72 h
HeLa = test: Cytotoxicity against human HeLa cells measured after 72 hrs by CCK8 assay; assay type: functional, cell-based
A549 = test: Cytotoxicity against human A549 cells measured after 72 hrs by CCK8 assay; assay type: functional, cell-based; details: A549, 72 h
[2] = Drug uptake in human U87 cells incubated for 24 hrs by confocal laser scanning microscopy; assay type: ADME, cell-based; details: u-87mg atcc
[3] = Drug uptake in human U87 cells at 20 nM by flow cytometry analysis; assay type: ADME, cell-based; details: u-87mg atcc, 0.02 µM
[4] = Drug uptake in human U87 cells by flow cytometry analysis; assay type: ADME, cell-based; details: u-87mg atcc
[5] = Drug uptake in human MCF7 cells incubated for 24 hrs by confocal laser scanning microscopy; assay type: ADME, cell-based; details: mcf7, 24 h
U-87 MG [6] = test: Inhibition of colony formation in human U87 cells at 25 nM pretreated for 24 hrs followed by media replacement for every 3 days by crystal violet staining based assay; assay type: functional, cell-based; details: U-87MG ATCC
U-87 MG [7] = test: Inhibition of cell migration in human U87 cells at 25 nM after 16 hrs by scratch assay; assay type: functional, cell-based; details: U-87MG ATCC
U-87 MG [8] = test: Potency index ratio of 3-fluoro-10-hydroxy-Evodiamine IC50 to test compound IC50 for cytotoxicity against human U87 cells; assay type: functional, U-87MG ATCC
[9] = Stability in serum (unknown origin) assessed as compound remaining after 180 mins by HPLC analysis; assay type: ADME, cell-free; details: read-out: Stability
U-87 MG [10] = test: Induction of cell cycle arrest at G2 phase in human U87 cells at 25 nM incubated for 24 hrs by flow cytometry analysis; assay type: functional, U-87MG ATCC
[11] = molecular target: T1, DNA topoisomerase 1 (Homo sapiens) (UniProt P11387); test: Inhibition of topoisomerase 1 (unknown origin) mediated DNA relaxation using supercoiled pBR322 DNA as substrate incubated for 1 hr by EtBr staining based agarose gel electrophoresis method; details: dose 500-1000 µM
T1 sequence (whole entry): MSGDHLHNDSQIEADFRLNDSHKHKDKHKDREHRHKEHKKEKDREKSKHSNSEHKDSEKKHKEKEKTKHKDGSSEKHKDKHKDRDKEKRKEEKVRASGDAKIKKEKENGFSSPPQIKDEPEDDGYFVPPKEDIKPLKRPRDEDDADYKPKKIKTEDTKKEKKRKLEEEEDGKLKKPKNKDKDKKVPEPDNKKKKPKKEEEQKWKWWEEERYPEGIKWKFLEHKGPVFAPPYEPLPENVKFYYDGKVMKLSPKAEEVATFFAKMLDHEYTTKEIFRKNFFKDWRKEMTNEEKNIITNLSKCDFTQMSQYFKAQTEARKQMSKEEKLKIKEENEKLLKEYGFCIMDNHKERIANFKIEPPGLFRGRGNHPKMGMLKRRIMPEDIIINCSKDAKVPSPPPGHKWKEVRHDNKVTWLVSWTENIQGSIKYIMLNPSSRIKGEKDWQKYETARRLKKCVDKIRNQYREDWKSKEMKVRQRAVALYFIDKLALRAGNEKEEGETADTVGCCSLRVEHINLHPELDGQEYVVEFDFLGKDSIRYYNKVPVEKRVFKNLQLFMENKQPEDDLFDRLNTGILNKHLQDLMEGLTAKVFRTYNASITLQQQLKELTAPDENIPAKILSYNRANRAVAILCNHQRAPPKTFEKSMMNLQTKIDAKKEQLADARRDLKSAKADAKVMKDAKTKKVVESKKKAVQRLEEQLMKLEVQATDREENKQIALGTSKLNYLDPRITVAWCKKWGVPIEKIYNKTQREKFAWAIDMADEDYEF

U-87 MG [12] = test: Inhibition of cell migration in human U87 cells at 25 nM incubated for 48 hrs by transwell assay relative to control; assay type: functional, U-87MG ATCC

SMILES | IC50 (U-87 MG [1]) | IC50 (MCF7) | IC50 (HeLa) | IC50 (A549) | further results
CN1c2ccc(F)cc2C(=O)N2CCc3c([nH]c4ccc(OC(=O)CCCC(=O)NC[C@@H]5NC(=O)[C@H](Cc6ccccc6)NC(=O)[C@H](CC(=O)O)NC(=O)CNC(=O)[C@H](CCCNC(=N)N)NC5=O)cc34)C21 (stereo partly drawn) | 285 nM | 137 nM | 302 nM | 307 nM | 
CN1c2ccc(F)cc2C(=O)N2CCc3c([nH]c4ccc(OC(=O)CCCC(=O)NCCCC[C@@H]5NC(=O)[C@H](Cc6ccccc6)NC(=O)[C@H](CC(=O)O)NC(=O)CNC(=O)[C@H](CCCNC(=N)N)NC5=O)cc34)C21 (stereo partly drawn) | 287 nM | 69.8 nM | 359 nM | 479 nM | 
CN1c2ccc(F)cc2C(=O)N2CCc3c([nH]c4ccc(OC(=O)CCSSCCC(=O)NCCCC[C@@H]5NC(=O)[C@H](Cc6ccccc6)NC(=O)[C@H](CC(=O)O)NC(=O)CNC(=O)[C@H](CCCNC(=N)N)NC5=O)cc34)C21 (stereo partly drawn) | 458 nM | 163 nM | 197 nM | 387 nM | 
CN1c2ccc(F)cc2C(=O)N2CCc3c([nH]c4ccc(OC(=O)CSCC(=O)NCC[C@@H]5NC(=O)[C@H](Cc6ccccc6)NC(=O)[C@H](CC(=O)O)NC(=O)CNC(=O)[C@H](CCCNC(=N)N)NC5=O)cc34)C21 (stereo partly drawn) | 53 nM | 60.2 nM | 53.7 nM | 38.1 nM | 
CN1c2ccc(F)cc2C(=O)N2CCc3c([nH]c4ccc(OC(=O)CCCC(=O)NCCC[C@@H]5NC(=O)[C@H](Cc6ccccc6)NC(=O)[C@H](CC(=O)O)NC(=O)CNC(=O)[C@H](CCCNC(=N)N)NC5=O)cc34)C21 (stereo partly drawn) | > 500 nM | 92.2 nM | 324 nM | 460 nM | 
CN1c2ccc(F)cc2C(=O)N2CCc3c([nH]c4ccc(OC(=O)CCSSCCC(=O)NCC[C@@H]5NC(=O)[C@H](Cc6ccccc6)NC(=O)[C@H](CC(=O)O)NC(=O)CNC(=O)[C@H](CCCNC(=N)N)NC5=O)cc34)C21 (stereo partly drawn) | 247 nM | 164 nM | > 500 nM | > 500 nM | 
CCN(CC)c1ccc2cc(C(=O)NCCCCCC(=O)NCCCCC(NC(=O)CSCC(=O)Oc3ccc4[nH]c5c(c4c3)CCN3C(=O)c4cc(F)ccc4N(C)C53)C(=O)NCCC[C@@H]3NC(=O)[C@H](Cc4ccccc4)NC(=O)[C@H](CC(=O)O)NC(=O)CNC(=O)[C@H](CCCNC(=N)N)NC3=O)c(=O)oc2c1 (stereo partly drawn) |  |  |  |  | Drug uptake [2]: Active; Drug uptake [3]: 44.8%; Drug uptake [4]: Dose-Dependent Effect and Tde; Drug uptake [5]: Not Active
CN1c2ccc(F)cc2C(=O)N2CCc3c([nH]c4ccc(OC(=O)CSCC(=O)NCCC[C@@H]5NC(=O)[C@H](Cc6ccccc6)NC(=O)[C@H](CC(=O)O)NC(=O)CNC(=O)[C@H](CCCNC(=N)N)NC5=O)cc34)C21 (stereo partly drawn) | 29.9 nM | 83.2 nM | 125 nM | 45.7 nM | inhibition (U-87 MG [6]): Active; inhibition (U-87 MG [7]): Active; Ratio IC50 (U-87 MG [8]): 5; remaining at 3 h [9]: 60%; Activity (U-87 MG [10]): >90%; inhibition [11]: Dose-Dependent Effect; inhibition at 0.025 µM (U-87 MG [12]): 25.5%
CN1c2ccc(F)cc2C(=O)N2CCc3c([nH]c4ccc(OC(=O)CSCC(=O)NC[C@@H]5NC(=O)[C@H](Cc6ccccc6)NC(=O)[C@H](CC(=O)O)NC(=O)CNC(=O)[C@H](CCCNC(=N)N)NC5=O)cc34)C21 (stereo partly drawn) | 130 nM | 30.6 nM | 74.8 nM | 51.5 nM | 
CN1c2ccc(F)cc2C(=O)N2CCc3c([nH]c4ccc(OC(=O)CCSSCCC(=O)NCCC[C@@H]5NC(=O)[C@H](Cc6ccccc6)NC(=O)[C@H](CC(=O)O)NC(=O)CNC(=O)[C@H](CCCNC(=N)N)NC5=O)cc34)C21 (stereo partly drawn) | > 500 nM | 205 nM | 322 nM | > 500 nM | 
CN1c2ccc(F)cc2C(=O)N2CCc3c([nH]c4ccc(OC(=O)CCSSCCC(=O)NC[C@@H]5NC(=O)[C@H](Cc6ccccc6)NC(=O)[C@H](CC(=O)O)NC(=O)CNC(=O)[C@H](CCCNC(=N)N)NC5=O)cc34)C21 (stereo partly drawn) | 406 nM | 138 nM | 282 nM | > 500 nM | 
CN1c2ccc(F)cc2C(=O)N2CCc3c([nH]c4ccc(O)cc34)[C@H]21 | 139 nM | 5.2 nM | 93.4 nM | 22.4 nM | 
CN1c2ccc(F)cc2C(=O)N2CCc3c([nH]c4ccc(OC(=O)CSCC(=O)NCCCC[C@@H]5NC(=O)[C@H](Cc6ccccc6)NC(=O)[C@H](CC(=O)O)NC(=O)CNC(=O)[C@H](CCCNC(=N)N)NC5=O)cc34)C21 (stereo partly drawn) | 83.6 nM | 109 nM | 202 nM | 54.1 nM | 
CN1c2ccc(F)cc2C(=O)N2CCc3c([nH]c4ccc(OC(=O)CCCC(=O)NCC[C@@H]5NC(=O)[C@H](Cc6ccccc6)NC(=O)[C@H](CC(=O)O)NC(=O)CNC(=O)[C@H](CCCNC(=N)N)NC5=O)cc34)C21 (stereo partly drawn) | 144 nM | 70.4 nM | 306 nM | 344 nM | 
